We go through one substance from patent US20260085315A1, “POLYNUCLEOTIDE COMPOSITIONS AND METHODS FOR TREATMENT OF CANCER” (APTAH BIO, INC., priority 2023, published 2026).

The subject of one data set is MCF-7 cell line. Put plainly: Mitochondrial membrane potential (MitoTracker Red). In kind it is cell-based, Human. Conditions: 0.25, 0.5, 1 μM; 24 hours; vs non-treated cells. As for the experimental part:
The evaluation of ASMO1 APT20TTMG effect on the mitochondrial membrane potential of MCF-7 cell line was performed using MitoTracker Red dye. MitoTracker Red is a cationic fluorophore that accumulates in the mitochondria matrix, providing an indication of the viability and integrity of that organelle.
For this, cells were cultured overnight in 24-well plates at a density of 1×10^5 cells/well, aiming cell adhesion. After that, cells were treated with three concentrations of APT20TTMG (0.25, 0.5, and 1 μM) for 24 hours. After treatment with the ASMO1, cells were collected using a 0.05% trypsin solution and washed twice with 2.0 mL of PBS buffer. Finally, samples were incubated with 500 μL of MitoTracker Red fluorescent dye solution at a concentration of 50 nM for 15 minutes in an incubator. Then the cells were again washed twice with 2 mL of PBS and, subsequently, analyzed in a flow cytometer (BD FACSCanto II, BD Biosciences) through the acquisition of 10.000 gated events/sample.

The test system of data set [1] is glioblastoma cell line U87-MG. Nature of the data set: Internalization of FAM-conjugated compound by flow cytometry. In kind it is cell-based, Human. Conditions: 1 μM FAM conjugate. As for the experimental part:
The values obtained were: 1 hour (47.45±4.7%), 2 hours (45.45±3.9%), 4 hours (58±4.8%) and 6 hours (63.65±3.2%). Cells were exposed to the fluorochrome-conjugated compound FAM at a concentration of 1 μM, so that the quantification of intracellular fluorescence was performed at 1, 2, 4 and 6 hours using of the flow cytometry technique, through the acquisition of 10,000 gated events. Data of 2 independent experiments performed in two technical replicates.
A general note: A flow cytometer gives signals particle by particle.

Data set [2] in a line: Body weight in xenograft study. In kind it is in vivo, athymic nude mice. Conditions: 20 mg/kg i.v. q3d, 3 weeks. As for the experimental part:
Body weight and tumor size were measured weekly twice using digital caliper. At termination, blood was collected through retro-orbital route. Serum/plasma was separated and stored at deep freezer (−20° C.). Post blood collection, animals were humanely sacrificed by CO2 asphyxiation as per latest guidelines issued by CPCSEA. All the vital organ (brain, kidney, liver, lungs, heart) and tumor were dissected out. Vital organs were fixed in 10% NBF and stored. Tumor tissue was dissected out, weighed and portion of tumor tissue was fixed in 10% NBF and another portion is snap frozen and stored at deep freezer (−80° C.).
As shown in FIG. 34A-C, tumor fragments from the U-87MG cell line were implanted in the animals and once the tumor size reached ˜100 mm^3 animals were randomized into 3 experimental groups (G1, G2, and G3). G1: Vehicle, (G2) Reference Item Temozolomide, and (G3) APT20TTMG for a total of 22 days. (A) The tumor volume of the animals was measured twice/a week. (B) Animals were weighed throughout the experiment and the change in weight gain compared to pre-treatment weight was plotted. (C) After the euthanasia of the animals, the tumors were removed and weighed.

A further data set has as its system Ki67. Put plainly: Ki67 immunohistochemistry of tumor samples. In kind it is in vivo, athymic nude mice. The note with it: treated groups vs non-treated control. As for the experimental part: Immunohistochemistry analysis of Ki67 in tumor samples was also performed. Quantification of the Ki67 in the sections was carried out by visual estimation (Ki67+ve) using two approaches: count of Ki-67 positive tumor cells and Ki67 total area. This process was done using ImageJ public domain software. In the case of the Ki67 total area evaluation, the ImageJ threshold function was used and each image was split into its constituent red, blue and green grayscale images. Further, one of these was selected and processed for threshold values. Values were selected so that the relevant areas (Ki67+ve cells, in this case) were highlighted and the % of area occupied by the selected threshold limits measured.
As shown in FIG. 35A-B, graphs present the individual values of protein quantification of tumors from 8 animals. (A) Ki-67 area, (B) Ki-67 positive tumor cells count.

d = 2'-deoxy (DNA); m = 2'-O-methyl

In the case of “APT20TTMG: engineered polynucleotide ASMO1, 24 nt, SEQ ID NO: 3 gtccactaacctttcaggccagcg; targeting moieties 5′-GTCCA-3′ and 5′-CG-3′, U1 snRNP recruiting moiety (GTCCACTAACCTTTCAGGCCAGCG; sugars from the 5' end m5 d14 m5, all phosphorothioate, methylation of C and T or U not given here)”, in the data set with MCF-7 cell line, the mitochondrial membrane potential result is given as “no change in mitochondrial membrane potential”. For the same substance, the internalization in data set [1] (1 hour) amounted to 47.45±4.7%; in data set [1] (2 hours) it was 45.45±3.9%; in data set [1] (4 hours), 58±4.8%; in data set [1] (6 hours), 63.65±3.2%. Besides, the “body weight of animals” value in data set [2] is “gain weight throughout the experiment”. The “Ki67 (positive tumor cell count and total area)” value in the data set on Ki67 is “did not detect any statistical differences”.
